The results in this text go back to PMC9076199 (RSC Advances, 2019).

In test [1] the target is T1, human carboxylesterase 2 (CES2) (Homo sapiens, UniProt O00748).
T1 sequence (O00748 27-559): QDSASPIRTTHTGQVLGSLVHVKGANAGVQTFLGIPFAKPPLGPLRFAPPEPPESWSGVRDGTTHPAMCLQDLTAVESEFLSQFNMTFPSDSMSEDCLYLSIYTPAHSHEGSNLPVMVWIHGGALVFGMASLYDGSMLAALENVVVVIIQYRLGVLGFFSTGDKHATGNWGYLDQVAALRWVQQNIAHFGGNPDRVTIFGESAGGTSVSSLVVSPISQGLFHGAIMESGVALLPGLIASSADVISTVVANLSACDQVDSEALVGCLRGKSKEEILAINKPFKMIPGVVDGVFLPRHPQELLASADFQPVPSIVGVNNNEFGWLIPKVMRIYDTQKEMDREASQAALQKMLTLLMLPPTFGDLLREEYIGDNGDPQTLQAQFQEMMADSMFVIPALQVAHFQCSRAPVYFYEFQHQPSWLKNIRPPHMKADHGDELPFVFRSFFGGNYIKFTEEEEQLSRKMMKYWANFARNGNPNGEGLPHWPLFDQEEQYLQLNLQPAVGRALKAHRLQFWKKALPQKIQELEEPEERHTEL
Description: Inhibition of CES2-mediated FD. It is filed as biochemical. To be noted: for selectivity for CES2 over CES1 (in words): CES2 versus CES1 IC50.

Test [2] addresses T2, human carboxylesterase 1 (CES1) (Homo sapiens, UniProt P23141).
T2 sequence (P23141 18-567): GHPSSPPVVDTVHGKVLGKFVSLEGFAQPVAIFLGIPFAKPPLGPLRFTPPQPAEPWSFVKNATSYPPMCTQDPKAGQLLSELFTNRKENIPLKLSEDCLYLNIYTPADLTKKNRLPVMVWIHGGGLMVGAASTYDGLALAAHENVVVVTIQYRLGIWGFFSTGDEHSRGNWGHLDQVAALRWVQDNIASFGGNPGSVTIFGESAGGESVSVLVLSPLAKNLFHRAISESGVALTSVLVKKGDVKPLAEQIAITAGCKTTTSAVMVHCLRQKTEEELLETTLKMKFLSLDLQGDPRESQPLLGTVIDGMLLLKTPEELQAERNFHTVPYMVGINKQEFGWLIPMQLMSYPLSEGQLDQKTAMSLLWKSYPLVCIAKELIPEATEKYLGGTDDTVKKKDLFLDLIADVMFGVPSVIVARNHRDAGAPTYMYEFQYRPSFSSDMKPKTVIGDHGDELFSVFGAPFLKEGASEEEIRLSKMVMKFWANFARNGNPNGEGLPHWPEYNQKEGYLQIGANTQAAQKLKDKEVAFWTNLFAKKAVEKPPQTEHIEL
Description: Inhibition of CES1-mediated DME. Type of test: biochemical.

`Cc1ccccc1C(c1c(C)[nH]c2ccccc12)c1c(C)[nH]c2ccccc12` [4b] returned an IC50 in test [1] of 560 ± 160 nM.
On the same count and under the same terms, the result for `Cc1cccc(C(c2c(C)[nH]c3ccccc23)c2c(C)[nH]c3ccccc23)c1` [4c] reads 340 ± 91 nM; that for `Cc1ccc(C(c2c(C)[nH]c3ccccc23)c2c(C)[nH]c3ccccc23)cc1` [4d], 280 ± 27 nM; that for `COc1ccccc1C(c1c(C)[nH]c2ccccc12)c1c(C)[nH]c2ccccc12` [4e], 200 ± 44 nM.
Turning to `COc1cccc(C(c2c(C)[nH]c3ccccc23)c2c(C)[nH]c3ccccc23)c1` [4f], the IC50 in test [1] came to 1280 ± 240 nM.
In test [2], `COc1ccc(C(c2c(C)[nH]c3ccccc23)c2c(C)[nH]c3ccccc23)cc1` [4g] came in with an IC50 of 2900 ± 240 nM. For the same compound, in test [1], the IC50 turned out to be 150 ± 32 nM and the “selectivity for CES2 over CES1 (in words)” value is “good selectivity over CES1”.
In test [1], `Cc1[nH]c2ccccc2c1C(c1ccccc1Cl)c1c(C)[nH]c2ccccc12` [4h] came in with an IC50 of 570 ± 86 nM.
Compound `Cc1[nH]c2ccccc2c1C(c1cccc(Cl)c1)c1c(C)[nH]c2ccccc12` [4i] gave an IC50 in test [1] of 1230 ± 370 nM.
On the same count and under the same terms, the result for `Cc1[nH]c2ccccc2c1C(c1ccc(Cl)cc1)c1c(C)[nH]c2ccccc12` [4j] reads 840 ± 230 nM; that for `Cc1[nH]c2ccccc2c1C(c1ccccc1Br)c1c(C)[nH]c2ccccc12` [4k], 350 ± 91 nM; that for `Cc1[nH]c2ccccc2c1C(c1cccc(Br)c1)c1c(C)[nH]c2ccccc12` [4l], 3170 ± 810 nM.
On the same count and under the same terms, the result for `Cc1[nH]c2ccccc2c1C(c1ccc(Br)cc1)c1c(C)[nH]c2ccccc12` [4m] reads 1210 ± 280 nM.
`Cc1[nH]c2ccccc2c1C(c1ccccc1[N+](=O)[O-])c1c(C)[nH]c2ccccc12` [4n]: the IC50 was found to be 3680 ± 430 nM in test [2] and 190 ± 45 nM in test [1]. Besides, the “selectivity for CES2 over CES1 (in words)” value in test [1] is given as “good selectivity over CES1”.
On to `Cc1[nH]c2ccccc2c1C(c1cccc([N+](=O)[O-])c1)c1c(C)[nH]c2ccccc12` [4o], for which the IC50 in test [1] worked out at 350 ± 110 nM.
In the case of `Cc1[nH]c2ccccc2c1C(c1ccc([N+](=O)[O-])cc1)c1c(C)[nH]c2ccccc12` [4p], in test [1], the IC50 is 1220 ± 200 nM.
